Measured values reported in patent US10376557B2, “Peptide fragments for inducing synthesis of extracellular matrix proteins” (HELIX BIOMEDIX, INC., priority 2006, dated 2019).
Ends that are not written are not given here.

Legend:
Type in all cases: cell-based
Human dermal fibroblasts = assay: SIRCOL collagen assay: soluble collagen released by dermal fibroblasts incubated with peptides; conditions: for Released collagen (μg/mL) 24 h / Released collagen (μg/mL) 48 h: peptide 50 μg/mL (per Table 5); for Collagen / Collagen (μg): * = may not be significant, detection limit 2.5 μg; for Collagen produced (μg/mL) 24 hrs / Collagen produced (μg/mL) 48 hrs: [Peptide] 50 μg/mL; for Significant release of collagen at 24 h and 48 h: 25 μg/mL considered significant
Method: Several sequences identified in Examples 1 and 2 were synthesized using standard peptide chemistry and assayed for the stimulation of collagen from dermal fibroblasts. The synthesized peptides were amidated at the C-terminus, which rendered the tetrapeptides less susceptible to protease degradation and increased their solubility compared to the free acid forms. Human dermal fibroblasts were incubated in 96-well plates at 37° C. and 5% CO2 for 24 and 48 hours in 150 μL complete cell culture media (Cascade Biologics, Portland, Oreg.; Cat. No. M-106-500), supplemented with Low Serum Growth Supplement (Cascade Biologics, Portland, Oreg.; Cat. No. […] Each well was seeded with 10,000 cells. Following the incubation, 100-μL medium samples were recovered from each well and assayed for collagen production
The assays were performed by Tebu-bio Laboratories (France) using the SIRCOL™ Collagen Assay Kit (Biocolor Assays, UK) following the manufacturer's protocol. The SIRCOL™ Collagen Assay is a quantitative dye-binding method designed for the analysis of soluble collagens released into culture medium by mammalian cells during in vitro culture. The collagen of the tested samples binds to the anionic SIRCOL™ dye. The collagen-dye complexes precipitate out of solution and are pelleted by centrifugation. The recovered collagen-dye pellet was dissolved in an alkaline solution prior to absorbance measurements. Duplicate measurements were taken at the 24 and 48 hour times from two separate samples. The four measurements for each sample were averaged. The absorbance of reagent blanks, collagen standards, and samples were measured at 560 nm. The reagent blank absorbance was subtracted from the absorbance from each sample at 24 and 48 hours.
Two separate data sets were used to generate two collagen standard calibration curves. The first calibration curve was generated for purposes of calculating the quantity of collagen in samples H6 (combination of SEQ ID NOs:1-4), […] (SEQ ID NOs:1-8, respectively) and H15 (combination of SEQ ID NOs:5-8). The second calibration curve was generated for calculating the quantity of collagen in samples H16 (SEQ ID NO:9), H21-23 (SEQ ID NOs:10-12, respectively), H25-26 (SEQ ID NOs:13-14, respectively), or H29-30 (SEQ ID NOs:15-16, respectively), H32 (SEQ ID NO:17), H33 (combination of SEQ ID NOs:9-12), H34 (combination of SEQ ID NOs:11-14), H35 (combination of SEQ ID NOs:13-16), H36 (combination of SEQ ID NOs:1, 6, 5, 8), H37 (SEQ ID NO: 17) and H38 (SEQ ID NO:8) from the absorbance measurements was created by plotting the Abs560nm of the known collagen standards versus the respective concentrations of the collagen standards (in micrograms) each time a series of assays were performed. With respect to each data set, the same calibration curve was used for samples taken at the 24 and 48 hour times (Tables 2A and 2B). Accordingly, different standard curves were prepared immediately prior to performing each series of assays.
A linear regression was performed from plotting the Abs560nm values versus concentrations of the respective collagen standards using MICROSOFT EXCEL™. […] As the results were identical, only the 24-hour time period was used for the second series calibration curves. The formula of the line obtained on assay date 1 and assay date 2 of the second series of samples was y=0.0178x and y=0.0162x, respectively. The peptide LL-37 (SEQ ID NO:18) was used as a positive control as it has been widely reported to have an impact upon wound healing in man (Heilborn et al., The Cathelicidin Anti-Microbial Peptide LL-37 Is Involved In The Re-Epithelialization Of Human Skin Wounds And Is Lacking In Chronic Ulcer Epithelium, J. Invest. Dermato. 120:379-89 (2003). The assay detection limit defined by the manufacturer is 2.5 μg. […]

[1] = tested on: human skin epithelial cells (CRL-2592); assay: In vitro scratch wound closure of skin epithelial cell monolayer; conditions: for W-size (wound size) 0 hr: prior to peptide treatment; for W-size (wound size) 6 hr / % closure 6 hr / W-size (wound size) 10 hr / % closure 10 hr: peptide 20 to 40 μg/ml; for % closure 6 hr: PBS controls 19.40%, 19.20%; for % closure 10 hr: PBS controls 41.70%, 42.30%; for wound closure compared to PBS alone (in words): epithelial cell monolayer
Method: Wound healing experiments were performed on monolayers of human skin epithelial cells (CRL-2592) plated onto 12-well plates. Cells were serum-starved for 24 hours before experimentation. Confluent monolayers of CRL-2592 were wounded using a P200 (200-μL) pipette tip. The wounds were washed and picture-documented prior to peptide treatment. Peptides were added to a final concentration from 20 to 40 μg/ml. Cells were kept in an incubator at 37° C., 5% CO2, and 92% humidity, except when images were being captured for a short period at room temperature. Wound closure was followed at 6-hour and 10-hour time points. PBS-treated wounds were used as negative controls for comparison purposes.

[2] = tested on: human skin fibroblast monolayer; assay: Wound closure in skin fibroblast monolayer (data not shown)
Description: In vitro monolayer wound closure is a result of cell migration, which is important in many biological processes such as embryogenesis, angiogenesis, inflammatory reactions and wound repair. These processes are thought to be regulated by interactions with other cells, cytokines and ECM proteins.

[3] = check mark = yes, peptide 50 μg/mL
[4] = 24 hours, peptide 50 μg/mL, second series
[5] = 48 hours, peptide 50 μg/mL, second series

Substance | Released collagen (μg/mL) 24 h (Human dermal fibroblasts) | Collagen produced (μg/mL) 24 hrs (Human dermal fibroblasts) | Released collagen (μg/mL) 48 h (Human dermal fibroblasts) | Collagen produced (μg/mL) 48 hrs (Human dermal fibroblasts) | Decrease in collagen release at 48 h v. 24 h (Human dermal fibroblasts; [3]) | W-size (wound size) 0 hr [1] | W-size (wound size) 6 hr [1] | % closure 6 hr [1] | W-size (wound size) 10 hr [1] | % closure 10 hr [1] | wound closure compared to PBS alone (in words) [1] | Average (A560 nm) (Human dermal fibroblasts; [4]) | Average minus blank (A560 nm) (Human dermal fibroblasts; [4]) | Collagen (Human dermal fibroblasts; [4]) | Average (A560 nm) (Human dermal fibroblasts; [5]) | Average minus blank (A560 nm) (Human dermal fibroblasts; [5]) | Collagen (Human dermal fibroblasts; [5]) | Significant release of collagen at 24 h and 48 h (Human dermal fibroblasts; [3]) | Collagen (μg) (Human dermal fibroblasts; [4]) | Collagen (μg) (Human dermal fibroblasts; [5]) | further results
GEPG (Synthetic Peptide H11) | 45 µg/mL | 45 µg/mL | 21 µg/mL | 21 µg/mL | ✓ | 48 arbitrary | 39 arbitrary | 19% | 30 arbitrary | 37.50% | does not enhance wound closure or epithelial cell migration to any great extent | – | – | – | – | – | – | – | – | – | Average (A560 nm) (Human dermal fibroblasts; 24 hours, peptide 50 μg/mL): 0.14; Average minus blank (A560 nm) (Human dermal fibroblasts; 24 hours, peptide 50 μg/mL): 0.06; Collagen (Human dermal fibroblasts; 24 hours, peptide 50 μg/mL, 100 μL medium sample): 4.5 µg; Average (A560 nm) (Human dermal fibroblasts; 48 hours, peptide 50 μg/mL): 0.15; Average minus blank (A560 nm) (Human dermal fibroblasts; 48 hours, peptide 50 μg/mL): 0.03; Collagen (μg) (Human dermal fibroblasts; 48 hours, peptide 50 μg/mL, 100 μL medium sample): 2.1* μg
PGPP (Synthetic Peptide H26) | 29 µg/mL | 29 µg/mL | 35 µg/mL | 35 µg/mL | – | 25 arbitrary | 12 arbitrary | 52% | 2.75 arbitrary | 89% | significantly induces wound closure | 0.13 | 0.05 | 2.9 µg | 0.12 | 0.06 | 3.5 µg | ✓ | – | – | wound closure in fibroblast monolayer (in words) [2]: does not induce wound closure
PKGP (PKGP-NH2) [H21] | 25 µg/mL | 25 µg/mL | 29 µg/mL | 29 µg/mL | – | – | – | – | – | – | – | 0.12 | 0.04 | 2.5 µg | 0.11 | 0.05 | 2.9 µg | ✓ | – | – | –
PMGP (PMGP-NH2) [H25] | 13 µg/mL | 13 µg/mL | 7 µg/mL | 7 µg/mL | ✓ | – | – | – | – | – | – | 0.10 | 0.02 | – | 0.07 | 0.01 | – | – | 1.3* μg | 0.7* μg | –
PQGP (PQGP-NH2) [H29] | 4 µg/mL | 4 µg/mL | 19 µg/mL | 19 µg/mL | – | – | – | – | – | – | – | 0.09 | 0.01 | – | 0.09 | 0.03 | – | – | 0.4* μg | 1.9* μg | Increase in collagen release at 48 h v. 24 h (Human dermal fibroblasts; [3]): ✓
